{"source": "patent US20200308622A1", "about": "“Phage-Mediated Molecular Detection Methods and Related Aspects” (United States of America as represented by the Secretary of …, priority 2017, published 2020)", "key": {"MRSA strain SA-1012.COI": {"test_system": "MRSA strain SA-1012.COI", "experiment": "PMMD (phage K RT-qPCR) antibiotic sensitivity assay, MRSA", "assay_type": "cell-based, Staphylococcus aureus", "details": "cefoxitin 4 μg/ml, with vs without fox, phage K gp125 RNA qPCR", "procedure": "(§1) Staphylococcus aureus (S. aureus) bacterial cultures were grown for one hour in LB-Lennox (10 g/l Tripone, 5 g/l yeast extract and 5 g/l NaCl) media at 37° C. with strong aeration (225 rpm shaking). For antibiotic sensitivity assays the cultures were grown for one or three hours, as indicated, and cefoxitin (Sigma-Aldrich) was added at a final concentration of 4 μg/ml using a 1,000× stock in water.\n(§2) The reactions were performed by mixing 50 μl of S. aureus bacterial cultures (˜2×10^9 cfu/ml) and 50 μl of a phage K lysate ( about 5×10^8 pfu/ml) or 1 μl of CsCl gradient purified phage K (about 1×10^10 pfu/ml). The mixtures were incubated on ice for 3-4 minutes and the infections were allowed to proceed for 10 minutes, unless indicated otherwise, at 37° C. with shaking (400 rpm). Five minutes prior to the end of the incubation, lysostaphin (Sigma-Aldrich) w as added from a 20× stock (2 mg/ml).\n(§3) Single-step fluorescent quantitative or real-time PCR (qPCR) was done with Luna one-step RT-qPCR kit (NEB) using low profile clear 0.2 ml PCR tubes and optical ultraclear flat caps (BioRad). The reactions were run in a CFX96 real-time PCR detection system (BioRad) with CFX Manager 3. Quantification cycle values (Cqs) were auto calculated by the software, and ranged front about […]. […] 10 minutes/35× (95° C. 10 seconds, 60° C. 30 seconds, plate read). […]"}, "MSSA strain RN4220": {"test_system": "MSSA strain RN4220", "experiment": "PMMD (phage K RT-qPCR) antibiotic sensitivity assay, MSSA", "assay_type": "cell-based, Staphylococcus aureus", "details": "cefoxitin 4 μg/ml, with vs without fox, phage K gp125 RNA qPCR", "procedure": "as §1, §2, §3"}}}
{"smiles": "CO[C@@]1(NC(=O)Cc2cccs2)C(=O)N2C(C(=O)O)=C(COC(N)=O)CS[C@@H]21", "note": "[fox, cefoxitin]", "values": [{"measurement": "Cq increase in the presence of fox", "setting": "MRSA strain SA-1012.COI; one hour of incubation", "result": "about 1.0"}, {"measurement": "Cq increase in the presence of fox", "setting": "MRSA strain SA-1012.COI; three hours of incubation", "result": "about 0.0"}, {"measurement": "increase of Cq values on addition of fox in the media", "setting": "MSSA strain RN4220; one hour of incubation", "result": "about 1.5"}, {"measurement": "increase of Cq values on addition of fox in the media", "setting": "MSSA strain RN4220; three hours of incubation", "result": "about 11.5"}]}
